target: Acetylcholinesterase (Electrophorus electricus, UniProt O42275); assay: Inhibition of electric eel AChE using acetylcholine iodide as substrate measured every 5 sec for 2 mins by Ellman's method
Sequence (O42275 whole entry): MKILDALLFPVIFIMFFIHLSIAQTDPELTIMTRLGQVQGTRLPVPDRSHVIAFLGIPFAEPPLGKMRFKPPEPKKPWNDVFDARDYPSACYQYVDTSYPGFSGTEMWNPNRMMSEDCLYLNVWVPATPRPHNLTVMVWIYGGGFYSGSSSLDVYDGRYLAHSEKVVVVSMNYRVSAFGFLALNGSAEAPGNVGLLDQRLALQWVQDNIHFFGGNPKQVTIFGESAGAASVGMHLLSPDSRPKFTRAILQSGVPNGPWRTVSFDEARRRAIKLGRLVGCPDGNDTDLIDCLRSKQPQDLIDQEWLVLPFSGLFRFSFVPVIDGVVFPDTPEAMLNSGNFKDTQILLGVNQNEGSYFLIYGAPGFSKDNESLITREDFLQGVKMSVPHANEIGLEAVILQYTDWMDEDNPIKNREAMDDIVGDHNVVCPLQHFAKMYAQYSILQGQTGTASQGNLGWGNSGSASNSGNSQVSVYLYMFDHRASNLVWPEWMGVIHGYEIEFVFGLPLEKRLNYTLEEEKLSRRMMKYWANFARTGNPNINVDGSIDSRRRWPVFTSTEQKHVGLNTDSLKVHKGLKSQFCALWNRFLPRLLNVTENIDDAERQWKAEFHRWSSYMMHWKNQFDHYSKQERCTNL

In order of rising IC50:
1. COc1ccc2c(ccc[n+]2Cc2ccccc2)c1  2.46 µM
2. COc1ccc2c3c([nH]c2c1)C(C)=NCC3 [HARMALINE]  4.9 µM
3. COc1ccc2c(ccc[n+]2C)c1  7.67 µM
4. Cc1nccc2c1[nH]c1cc(O)ccc12  8.02 µM
5. CC1=NCCc2c1[nH]c1cc(O)ccc21 [HARMALOL]  11.3 µM
6. Cc1nccc2c1[nH]c1ccccc12 [HARMAN]  20.9 µM
7. COc1ccc2c(c1)[nH]c1c(C)nccc12 [HARMINE]  22.9 µM
8. c1ccc2c3c([nH]c2c1)CNCC3 [TRYPTOLINE]  97.1 µM
9. COc1ccc2[nH]c3c(c2c1)CCNC3  227 µM

target: T1, Acetylcholinesterase (Homo sapiens, UniProt P22303); assay: Inhibition of AChE by Ellman's method
T1 sequence (P22303 whole entry): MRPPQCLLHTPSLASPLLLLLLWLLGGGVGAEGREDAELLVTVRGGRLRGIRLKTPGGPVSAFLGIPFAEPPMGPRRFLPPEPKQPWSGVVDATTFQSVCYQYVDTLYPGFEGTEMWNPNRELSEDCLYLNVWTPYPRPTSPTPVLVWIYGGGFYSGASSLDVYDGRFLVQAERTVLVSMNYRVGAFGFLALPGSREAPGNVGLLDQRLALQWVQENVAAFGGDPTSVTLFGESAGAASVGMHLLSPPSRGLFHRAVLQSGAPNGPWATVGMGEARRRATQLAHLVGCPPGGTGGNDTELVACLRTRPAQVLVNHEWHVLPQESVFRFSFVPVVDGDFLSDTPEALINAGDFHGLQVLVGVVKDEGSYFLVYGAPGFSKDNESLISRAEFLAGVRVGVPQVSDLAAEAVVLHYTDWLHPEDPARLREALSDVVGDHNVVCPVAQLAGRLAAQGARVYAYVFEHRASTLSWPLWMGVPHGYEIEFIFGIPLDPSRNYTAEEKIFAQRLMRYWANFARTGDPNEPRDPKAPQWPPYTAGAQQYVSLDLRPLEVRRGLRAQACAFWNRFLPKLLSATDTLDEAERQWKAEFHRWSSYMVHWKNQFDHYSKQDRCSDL

In order of falling IC50:
1. CC[C@H]1C[C@@H]2C[C@H]3c4[nH]c5cc([C@@H]6C[C@H]7C(C(=O)OC)[C@@H](Cc8c6[nH]c6ccccc86)N(C)C[C@H]7CC)ccc5c4CCN(C2)[C@@H]13 (stereo partly drawn)  0.227 µM
2. CC[C@H]1C[C@@H]2CN3CCc4c([nH]c5cc([C@H]6C[C@H]7C(C(=O)OC)[C@H](Cc8c6[nH]c6ccccc86)N(C)C[C@H]7CC)ccc45)[C@](C(=O)OC)(C2)[C@H]13 (stereo partly drawn)  0.071 µM

target: Acetylcholinesterase (Electrophorus electricus) (UniProt O42275); assay: Inhibition of electric eel AChE using acetylcholine iodide as substrate at 6.2 X 10^-4 M measured every 5 sec for 2 mins by Ellman's method
Sequence (O42275 24-633 limits assumed): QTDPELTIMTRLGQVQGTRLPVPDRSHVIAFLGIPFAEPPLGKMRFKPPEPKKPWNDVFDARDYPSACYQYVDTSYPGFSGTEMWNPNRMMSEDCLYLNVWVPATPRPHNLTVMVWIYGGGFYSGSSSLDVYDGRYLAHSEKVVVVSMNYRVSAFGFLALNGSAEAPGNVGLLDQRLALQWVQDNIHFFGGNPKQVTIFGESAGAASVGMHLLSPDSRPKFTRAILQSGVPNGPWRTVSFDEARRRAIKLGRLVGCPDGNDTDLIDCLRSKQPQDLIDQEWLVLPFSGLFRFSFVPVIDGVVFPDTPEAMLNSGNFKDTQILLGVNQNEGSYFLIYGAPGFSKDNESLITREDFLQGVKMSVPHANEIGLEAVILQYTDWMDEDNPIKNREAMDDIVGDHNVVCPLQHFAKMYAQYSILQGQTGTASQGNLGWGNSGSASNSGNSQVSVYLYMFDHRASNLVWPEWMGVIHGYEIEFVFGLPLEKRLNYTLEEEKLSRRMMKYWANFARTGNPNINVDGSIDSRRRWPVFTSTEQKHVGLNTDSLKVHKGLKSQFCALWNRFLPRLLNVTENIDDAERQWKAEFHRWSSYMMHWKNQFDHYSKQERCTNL

In order of rising inhibition:
1. O=C(O)c1cccc2cc[nH]c12  23.4%
2. O=C(O)c1ccc2cc[nH]c2c1  28.5%
3. O=C(O)c1ccc2[nH]ccc2c1  29.1%
4. O=C(O)c1cccc2[nH]ccc12  36.8%

target: T1, Acetylcholinesterase; assay: Inhibition of human AChE by Ellman's method

In order of falling IC50:
1. COc1ccc2c(ccc[n+]2C)c1  49.7 µM
2. COc1ccc2c3c([nH]c2c1)C(C)=NCC3 [HARMALINE]  23.7 µM
3. COc1ccc2c(ccc[n+]2Cc2ccccc2)c1  5.29 µM

Source: ChEMBL document CHEMBL2016507, “Prospective acetylcholinesterase inhibitory activity of indole and its analogs” (Bioorg Med Chem Lett, 2012)
